Data reported in PubChem BioAssay (NCI).
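Values below derive from 48-hour exposures of cells grown in 96-well plates, with endpoints linearly interpolated between the two concentrations bracketing the appropriate inhibition level. Definition used: TGI = concentration required for complete inhibition of growth.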 Where a SMILES comes first, the peptide text is derived from it. [ ]: non-standard residue; d: D form. The star is where a group is joined. Hyp = O=C(O)[CH]1C[CH](O)CN1; Cbz = O=C(OCc1ccccc1)*

Columns and labels:
Assay in all cases: growth of human tumour cells (NCI), 48 h
UO-31 renal = tested on: UO-31 renal
TK-10 renal = tested on: TK-10 renal
LOX IMVI melanoma = tested on: LOX IMVI melanoma
SW-620 colon = tested on: SW-620 colon
HL-60(TB) leukemia = tested on: HL-60(TB) leukemia
MCF7 breast = tested on: MCF7 breast
A498 renal = tested on: A498 renal
MDA-N = tested on: MDA-N
SNB-75 CNS = tested on: SNB-75 CNS
NCI-H23 lung = tested on: NCI-H23 lung
MOLT-4 leukemia = tested on: MOLT-4 leukemia
A549 NSCLC = tested on: A549 NSCLC
MDA-MB-435 = tested on: MDA-MB-435
SN12C renal = tested on: SN12C renal
RPMI-8226 leukemia = tested on: RPMI-8226 leukemia
NCI/ADR-RES ovarian = tested on: NCI/ADR-RES ovarian
NCI-H460 lung = tested on: NCI-H460 lung
HS 578T breast = tested on: HS 578T breast
HCT-116 colon = tested on: HCT-116 colon

SMILES | TGI (UO-31 renal) [µM] | TGI (TK-10 renal) [µM] | TGI (LOX IMVI melanoma) [µM] | TGI (SW-620 colon) [µM] | TGI (HL-60(TB) leukemia) [µM] | TGI (MCF7 breast) [µM] | TGI (A498 renal) [µM] | TGI (MDA-N) [µM] | TGI (SNB-75 CNS) [µM] | TGI (NCI-H23 lung) [µM] | TGI (MOLT-4 leukemia) [µM] | TGI (A549 NSCLC) [µM] | TGI (MDA-MB-435) [µM] | TGI (SN12C renal) [µM] | TGI (RPMI-8226 leukemia) [µM] | TGI (NCI/ADR-RES ovarian) [µM] | TGI (NCI-H460 lung) [µM] | TGI (HS 578T breast) [µM] | TGI (HCT-116 colon) [µM]
NC(=O)CNC(=O)C1CC(O)CN1C(=O)C1CCCN1C(=O)OCc1ccccc1 (stereo not drawn) (Cbz-Pro-[Hyp]-Gly-NH2; configuration not given here) | > 100 | > 100 | > 100 | > 100 | > 100 | > 100 | > 100 | > 100 | > 100 | > 100 | > 100 | > 100 | > 100 | > 100 | > 100 | > 100 | > 100 | > 100 | > 100
Oc1c(O)c(Cc2ccccc2)c(Cc2ccccc2)c(Cc2ccccc2)c1Cc1ccccc1 | > 10 | > 10 | > 10 | > 10 | > 10 | > 10 | > 10 | > 10 | > 10 | > 10 | > 10 | > 10 | > 10 | > 10 | > 10 | > 10 | > 10 | > 10 | > 10
CN(C)c1ccc(C2=C([O-])c3cc(-[n+]4ccccc4)ccc3C2=O)cc1 | > 100 | > 100 | > 100 | > 100 | > 100 | > 100 | > 100 | > 100 | > 100 | > 100 | > 100 | > 100 | > 100 | > 100 | > 100 | > 100 | > 100 | > 100 | > 100
c1cc2nnc1SCCSCCCSCCS2 | > 100 | > 100 | > 100 | > 100 | > 100 | > 100 | > 100 | > 100 | 41.2 | > 100 | > 100 | > 100 | > 100 | > 100 | > 100 | > 100 | > 100 | > 100 | > 100
Clc1cccc(/C=c2\nc(-c3ccccc3)n3c2nc2ccccc23)c1 | > 100 | > 100 | > 100 | > 100 | > 100 | > 100 | > 100 | > 100 | 81.2 | > 100 | > 100 | > 100 | > 100 | > 100 | > 100 | > 100 | > 100 | > 100 | > 100
CC(C)C(=O)/C=C/c1ccc(Cl)cc1Cl | 23.5 | 27.2 | 13.5 | 7.92 | > 100 | 14.2 | 31.8 | 7.06 | 27.7 | 26.8 | 96.4 | 30.4 | 10 | 23 | > 100 | 54.6 | 23.4 | 22.2 | 10
COc1ccc(N2C(=O)C3c4[nH]c5ccc(OC)cc5c4C4CCC(c5ccccc5)CC4C3C2=O)cc1 (stereo unspecified) | > 70.6 | > 57.7 | 56.3 | 25.1 | 66 | > 85.4 | 37.4 | > 66.7 | 16.7 | 46.6 | 16.9 | 40.3 | 68.4 | 27.9 | 39.7 | 33.2 | 21.7 | 12.7 | 22.7
Clc1ccc(C2=Cc3nc2c(-c2ccccc2)c2ccc([nH]2)c(-c2ccccc2)c2nc(c(-c4ccccc4)c4ccc([nH]4)c3-c3ccccc3)C=C2)cc1 | > 62.5 | > 62.5 | > 62.5 | > 62.5 | > 62.5 | > 62.5 | > 62.5 | > 62.5 | > 62.5 | > 62.5 | > 62.5 | > 62.5 | > 62.5 | > 62.5 | > 62.5 | > 62.5 | > 62.5 | > 62.5 | > 62.5
COc1cc(/C=C/C(=O)N[C@@H]2C(=O)N3[C@@H]2SC(C)(C)[C@@H]3C(=O)O)ccc1O | > 100 | > 100 | > 100 | > 100 | > 100 | > 100 | > 100 | > 100 | > 100 | > 100 | > 100 | > 100 | > 100 | > 100 | > 100 | > 100 | > 100 | > 100 | > 100
COc1ccccc1CC1(O)OC(=O)c2ccccc21 (stereo unspecified) | > 100 | > 100 | > 100 | > 100 | > 100 | > 100 | > 100 | > 100 | > 100 | > 100 | > 100 | > 100 | > 100 | > 100 | > 100 | > 100 | > 100 | > 100 | > 100
CCCCCCCCCCCCCC/C(C(=O)O)=C(\C)C(=O)O | > 100 | > 100 | > 100 | > 100 | > 100 | > 100 | > 100 | > 100 | > 100 | > 100 | > 100 | > 100 | > 100 | > 100 | > 100 | > 100 | > 100 | > 100 | > 100
CCOC(=O)n1ccc2c(C(=O)OC)c(C(=O)OC)cc(/C(=C/C(=O)OC)C(=O)OC)c21 | > 100 | > 100 | > 100 | > 100 | > 100 | > 100 | > 100 | > 100 | > 100 | > 100 | > 100 | > 100 | > 100 | > 100 | > 100 | > 100 | > 100 | > 100 | > 100
NC(=S)NN=C1Cc2ccccc2C1 | > 100 | > 100 | > 100 | > 100 | > 100 | > 100 | > 100 | > 100 | > 100 | > 100 | > 100 | > 100 | > 100 | > 100 | > 100 | > 100 | > 100 | > 100 | > 100
O=C(Cc1ccccc1)Nc1nc2ccc(Cl)cc2c2nc(-c3ccco3)nn12 | > 100 | > 75.3 | > 100 | > 100 | > 100 | > 100 | > 100 | > 100 | > 54.2 | > 100 | > 100 | > 100 | > 100 | > 100 | > 100 | > 100 | > 100 | > 100 | > 100
CCCCCCCCCCCCCCCCCCOC(COP(=O)(O)OCC1OC(n2cc(F)c(=O)[nH]c2=O)CC1O)COP(=O)(O)OCC1OC(n2ccc(N)nc2=O)C(O)C1O (stereo unspecified) | > 100 | > 100 | > 100 | > 100 | > 100 | > 100 | > 100 | > 100 | > 100 | > 100 | > 79.8 | > 63.6 | > 100 | > 100 | > 100 | > 100 | > 65.3 | > 100 | > 100
COc1cc(/C=C2\CC3C4CC[C@H]5C[C@@H](O)CC[C@]5(C)C4CC[C@]3(C)\C2=N\O)cc(OC)c1OC (stereo partly specified) | 17.4 | > 100 | 64.2 | > 100 | 55.8 | 26.8 | 31.1 | 41.9 | > 100 | > 100 | 37.5 | > 100 | 34.8 | 41.9 | 23.4 | 48.6 | 82.9 | 75.7 | 21.4
O=C(O)C(C(F)(F)F)C(F)(F)F (tested in a mixture with another compound) | > 100 | > 100 | > 100 | > 100 | > 100 | > 100 | > 100 | > 100 | > 100 | > 100 | > 100 | > 100 | > 100 | > 100 | > 100 | > 100 | > 100 | > 100 | > 100
Oc1cc(F)cc2cccnc12 | > 100 | > 100 | 29.1 | > 100 | 0.454 | > 39.7 | > 68.1 | > 100 | > 100 | 18.2 | 1.97 | > 50.8 | > 100 | > 94.3 | 1.17 | 6.74 | 29.3 | > 100 | > 20.9
CCOC1Oc2ccccc2-c2nc(N)ncc21 (stereo unspecified) | > 100 | > 100 | > 100 | > 100 | 62.3 | > 100 | 81.3 | > 100 | > 100 | > 100 | > 100 | > 100 | 66.3 | > 100 | > 100 | > 100 | > 100 | > 100 | > 100
COc1cc([N+](=O)[O-])cc2c1NC(=O)C2(C)SC (stereo unspecified) | > 100 | > 100 | > 100 | > 100 | 47.2 | > 100 | > 100 | > 100 | 90.6 | > 100 | > 100 | > 100 | > 100 | > 100 | > 100 | > 100 | > 100 | > 100 | > 100
Cc1cc(=O)[nH]c(S(=O)(=O)NC(=O)Nc2cccc(Cl)c2)n1 | 13.9 | > 100 | > 100 | > 100 | > 31.2 | > 100 | > 100 | > 100 | > 100 | > 100 | > 100 | > 100 | > 48.3 | > 100 | > 100 | > 100 | > 100 | > 100 | > 100
O=C1NC(=O)C23C(=O)NC(=O)C12C1C=CC3CC1 (stereo unspecified) | > 10 | > 10 | > 10 | > 10 | > 10 | > 10 | > 10 | > 10 | > 10 | > 10 | > 10 | > 10 | > 10 | > 10 | > 10 | > 10 | > 10 | > 10 | > 10
CCOC(=O)/C=C(/C(=O)OCC)n1cc(C)c(=O)[nH]c1=O | 23.5 | 5.48 | 5.94 | 4.84 | 3.91 | 12.7 | 26.4 | 17.7 | 23.7 | 18.3 | 6.51 | 31.5 | 10.2 | 12.3 | 5.68 | 33.7 | 29.4 | 46.9 | 5.74
Cc1[nH]c2[nH]c(=S)nc(NC(N)=S)c2c1Cc1ccccc1 | > 100 | > 100 | 55.4 | > 100 | 57.4 | > 100 | > 100 | 69.1 | 76.4 | > 100 | > 100 | > 100 | 36.6 | > 100 | 55.3 | > 100 | > 100 | 60.6 | > 100
